Laboratory results as given in PubChem BioAssay (NCI).
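Growth conditions: 96-well plates. Treatment: test compound, 48 hours, 5 concentrations. Analysis: linear interpolation between bracketing concentrations; unreached endpoints set to highest concentration. At the TGI there is no net growth.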

Assays:
Experiment in all cases: NCI-60 cell line screen, 48 h
M14 melanoma = test system: M14 melanoma
SR leukemia = test system: SR leukemia
MCF7 breast = test system: MCF7 breast
UACC-257 melanoma = test system: UACC-257 melanoma
MALME-3M melanoma = test system: MALME-3M melanoma
U251 CNS = test system: U251 CNS
RPMI-8226 leukemia = test system: RPMI-8226 leukemia
SF-268 CNS = test system: SF-268 CNS
NCI-H226 lung = test system: NCI-H226 lung
SK-OV-3 ovarian = test system: SK-OV-3 ovarian

Compound	TGI (M14 melanoma) [µM]	TGI (SR leukemia) [µM]	TGI (MCF7 breast) [µM]	TGI (UACC-257 melanoma) [µM]	TGI (MALME-3M melanoma) [µM]	TGI (U251 CNS) [µM]	TGI (RPMI-8226 leukemia) [µM]	TGI (SF-268 CNS) [µM]	TGI (NCI-H226 lung) [µM]	TGI (SK-OV-3 ovarian) [µM]
O=C(O)C1Cc2ccccc2OC1=O (configuration not stated)	> 100	> 100	> 100	> 100	> 100	> 100	> 100	> 100	> 100	> 100
CC(=O)O[C@H]1CC[C@H]2[C@@H]3CC[C@H]4Nc5c(cnn5S(C)(=O)=O)C[C@]4(C)[C@H]3CC[C@]12C	> 100	> 100	82.4		> 100	> 100	> 100		> 100	> 100
CCOC(=O)C1CCCC1S(=O)(=O)c1ccc(C)cc1 (configuration not stated)	> 100	> 100	> 100		> 100	> 100	> 100	> 100	> 100	> 100
COc1ccc(C2c3c(-c4ccccc4)nn(-c4ccccc4)c3Oc3ncn(N)c(=N)c32)cc1OC (configuration not stated)	4.17	> 26.6	3.26	3.82	3.24	> 100	> 25.1	10.4	7.44	21.6
CC(=N\N=C\c1ccccn1)/C(C)=N/N=C/c1ccccn1	> 100	> 100	> 100	> 100	> 100	> 100	> 100	> 100	> 100	> 100
O=C(O)C1C2CCC(C2)C1c1ccccc1 (configuration not stated)	> 100	> 100	> 100	> 100	> 100	> 100	> 100	> 100	> 100	> 100
CN(c1ccccc1Cl)S(=O)(=O)c1ccccc1	> 100	> 100	> 100	> 100	> 100	> 100	> 100	> 100	> 100	> 100
CC1(C)N=C(/C(C#N)=[N+](/[O-])C(=O)c2ccccc2)C(C)(C)N1O	> 100	> 100	> 100	> 100	> 100	> 100	> 100	> 100	> 100	> 100
O=C(O)c1ccc(/C=N\N(CCO)C2=NCCN2)cc1	> 100	> 100	> 100		> 100	> 100	> 100	> 100	> 100	> 100
C[N+](C)(N)Cc1csc(-c2ccc(Cl)cc2)n1	> 100	> 100	> 100	> 100	> 100	> 100	> 100	> 100	> 100	> 100
O=C(O)C1(CC(CCCN2CCCCC2)c2ccccc2)CCCC1 (configuration not stated)	> 100	> 100	> 100		> 100	> 100	> 100	> 100	> 100	> 100
CCOC(=S)SC/C(=N\OC(C)(C)OC)c1ccccc1	> 100	35.9	> 100	> 100	75.9	> 100		> 100	> 100	> 100
CCOC(=O)c1[nH]n(-c2ccccc2)c(=O)c1C=NC(=S)C(N)=S	73.3	> 100	> 100	> 100	> 100	> 100		> 100	> 100	> 100
CC(C)(CO)NC(=O)c1cccc(C(=O)NC(C)(C)CO)c1Br	> 100	> 100	> 100	> 100	> 100	> 100	> 100	> 100	> 100	
Cc1cc2nc(NS(=O)(=O)c3cc(C)c(Cl)cc3S)[nH]c2cc1C	> 100	> 100	> 100	> 100	> 100	> 100	> 100	> 100		> 100
COc1cc(OC)c(NC2=NCCO2)cc1Cl	97.8	83.2	> 100	> 100	> 100	> 100	> 100	> 100	75.6	
CNC(=O)C(NC(=O)[C@H](CC(C)C)NC(=O)[C@@H](S)CCN1C(=O)N(C)C(C)(C)C1=O)C(C)(C)C (some centres not stated)	> 100	> 100	> 100	> 100	> 100		> 100	> 100	> 100	> 100
COC(=O)C(Cc1ccccc1)NC(=O)C(CCCN=C(N)N)NC(=O)OCc1ccccc1 (configuration not stated)	> 100	> 100	> 100		> 100	> 100	> 100	> 100	> 100	> 100
CC(C(O)c1ccccc1)[N+](=O)[O-] (configuration not stated)	72	9.82	40.1	31.7	48.4	38.4	47.5	95.5	48.3	
